Where “and” joins values, the source holds several entries; their conditions need not be identical. Identical values can stand only once. Calls of active or inactive are those of the source. The calls are words filed in the database; no cut-off is given here.
Assays:
[1] = target: Cyclin-dependent kinase 7 (Homo sapiens) (UniProt P50613); assay: Inhibition of human CDK7 assessed as percent of control at 2000 nM by KINOMEscan assay relative to control; parameters: scale not given: the % may be the effect or the level left
[2] = target: Cyclin-dependent kinase-like 3 (Homo sapiens) (UniProt Q8IVW4); assay: Inhibition of human CDKL3 assessed as percent of control at 2000 nM by KINOMEscan assay relative to control; parameters: scale not given: the % may be the effect or the level left
[3] = target: Cyclin-dependent kinase 8/19 (Homo sapiens, UniProt P49336+Q9BWU1); settings: ST-2
Description: Inhibition of CDK8/CDK19 in ST2 cells by alkaline phosphatase activity assay

[4] = target: Tyrosine-protein kinase receptor TYRO3 (Homo sapiens) (UniProt Q06418); assay: Inhibition of human TYRO3 assessed as percent of control at 2000 nM by KINOMEscan assay relative to control; parameters: scale not given: the % may be the effect or the level left
[5] = target: Cyclin-dependent kinase 11A (Homo sapiens) (UniProt Q9UQ88); assay: Inhibition of human CDC2L2 assessed as percent of control at 2000 nM by KINOMEscan assay relative to control; parameters: scale not given: the % may be the effect or the level left
[6] = target: Serine/threonine-protein kinase TAO3 (Homo sapiens) (UniProt Q9H2K8); assay: Inhibition of human TAOK3 assessed as percent of control at 2000 nM by KINOMEscan assay relative to control; parameters: scale not given: the % may be the effect or the level left
[7] = target: Tyrosine-protein kinase Fgr (Homo sapiens) (UniProt P09769); assay: Inhibition of human FGR assessed as percent of control at 2000 nM by KINOMEscan assay relative to control; parameters: scale not given: the % may be the effect or the level left
[8] = target: Proto-oncogene tyrosine-protein kinase receptor Ret (Homo sapiens) (UniProt P07949); assay: Inhibition of human RET assessed as percent of control at 2000 nM by KINOMEscan assay relative to control; parameters: scale not given: the % may be the effect or the level left
[9] = target: NT-3 growth factor receptor (Homo sapiens) (UniProt Q16288); assay: Inhibition of human TRKC assessed as percent of control at 2000 nM by KINOMEscan assay relative to control; parameters: scale not given: the % may be the effect or the level left
[10] = target: Serine/threonine-protein kinase WNK2 (Homo sapiens) (UniProt Q9Y3S1); assay: Inhibition of human WNK2 assessed as percent of control at 2000 nM by KINOMEscan assay relative to control; parameters: scale not given: the % may be the effect or the level left
[11] = target: Serine/threonine-protein kinase 16 (Homo sapiens) (UniProt O75716); assay: Inhibition of human STK16 assessed as percent of control at 2000 nM by KINOMEscan assay relative to control; parameters: scale not given: the % may be the effect or the level left
[12] = target: MAP/microtubule affinity-regulating kinase 3 (Homo sapiens) (UniProt P27448); assay: Inhibition of human MARK3 assessed as percent of control at 2000 nM by KINOMEscan assay relative to control; parameters: scale not given: the % may be the effect or the level left
[13] = target: Serine/threonine-protein kinase tousled-like 2 (Homo sapiens) (UniProt Q86UE8); assay: Inhibition of human TLK2 assessed as percent of control at 2000 nM by KINOMEscan assay relative to control; parameters: scale not given: the % may be the effect or the level left
[14] = target: Phosphatidylinositol 4-phosphate 5-kinase type-1 alpha (Homo sapiens) (UniProt Q99755); assay: Inhibition of human PIP5K1A assessed as percent of control at 2000 nM by KINOMEscan assay relative to control; parameters: scale not given: the % may be the effect or the level left
[15] = target: Death-associated protein kinase 3 (Homo sapiens) (UniProt O43293); assay: Inhibition of human DAPK3 assessed as percent of control at 2000 nM by KINOMEscan assay relative to control; parameters: scale not given: the % may be the effect or the level left
[16] = target: Serine/threonine-protein kinase SBK1 (Homo sapiens) (UniProt Q52WX2); assay: Inhibition of human SBK1 assessed as percent of control at 2000 nM by KINOMEscan assay relative to control; parameters: scale not given: the % may be the effect or the level left
CWR22R = assay: Antitumor activity against human 22Rv1 cells expressing AR-V7 xenografted in male nude mouse assessed as suppression of tumor growth at 25 mg/kg, administered twice a day for 40 days; type: functional, organism-based
[17] = test system: Epidermal growth factor receptor (Homo sapiens), P00533 [L861Q]; assay: Inhibition of human EGFR L861Q mutant assessed as percent of control at 2000 nM by KINOMEscan assay relative to control; parameters: scale not given: the % may be the effect or the level left
[18] = target: Serine/threonine-protein kinase PLK2 (Homo sapiens) (UniProt Q9NYY3); assay: Inhibition of human PLK2 assessed as percent of control at 2000 nM by KINOMEscan assay relative to control; parameters: scale not given: the % may be the effect or the level left
[19] = target: MAP/microtubule affinity-regulating kinase 4 (Homo sapiens) (UniProt Q96L34); assay: Inhibition of human MARK4 assessed as percent of control at 2000 nM by KINOMEscan assay relative to control; parameters: scale not given: the % may be the effect or the level left
[20] = target: Serine/threonine-protein kinase RIO2 (Homo sapiens) (UniProt Q9BVS4); settings: INHIBITOR, dose 2000.0 nM
Description: Inhibition of human RIOK2 at 2000 nM by KINOMEscan assay

[21] = target: 5'-AMP-activated protein kinase catalytic subunit alpha-1 (Homo sapiens) (UniProt Q13131); assay: Inhibition of human AMPK-alpha1 assessed as percent of control at 2000 nM by KINOMEscan assay relative to control; parameters: scale not given: the % may be the effect or the level left
[22] = target: Tyrosine-protein kinase CSK (Homo sapiens) (UniProt P41240); assay: Inhibition of human CSK assessed as percent of control at 2000 nM by KINOMEscan assay relative to control; parameters: scale not given: the % may be the effect or the level left
[23] = target: Phosphatidylinositol 3-kinase C2 domain-containing subunit gamma (Homo sapiens) (UniProt O75747); assay: Inhibition of human PIK3C2G assessed as percent of control at 2000 nM by KINOMEscan assay relative to control; parameters: scale not given: the % may be the effect or the level left
[24] = target: Mitogen-activated protein kinase kinase kinase 12 (Homo sapiens) (UniProt Q12852); assay: Inhibition of human DLK assessed as percent of control at 2000 nM by KINOMEscan assay relative to control; parameters: scale not given: the % may be the effect or the level left
[25] = test system: Tyrosine-protein kinase ABL1 (Homo sapiens), P00519 [T315I]; assay: Inhibition of phosphorylated human ABL1 T315I mutant assessed as percent of control at 2000 nM by KINOMEscan assay relative to control; parameters: scale not given: the % may be the effect or the level left
[26] = target: Phosphatidylinositol 5-phosphate 4-kinase type-2 beta (Homo sapiens) (UniProt P78356); assay: Inhibition of human PIP5K2B assessed as percent of control at 2000 nM by KINOMEscan assay relative to control; parameters: scale not given: the % may be the effect or the level left
[27] = target: Leucine-rich repeat serine/threonine-protein kinase 2 (Homo sapiens) (UniProt Q5S007); assay: Inhibition of human LRRK2 assessed as percent of control at 2000 nM by KINOMEscan assay relative to control; parameters: scale not given: the % may be the effect or the level left
Myc-CaP = assay: Inhibition of colony formation in murine castration-resistant Myc-CaP cells at 1 uM by clonogenic assay; type: functional; settings: Mus musculus
[28] = target: Non-receptor tyrosine-protein kinase TNK1 (Homo sapiens) (UniProt Q13470); assay: Inhibition of human TNK1 assessed as percent of control at 2000 nM by KINOMEscan assay relative to control; parameters: scale not given: the % may be the effect or the level left
[29] = target: Serine/threonine-protein kinase LATS2 (Homo sapiens) (UniProt Q9NRM7); assay: Inhibition of human LATS2 assessed as percent of control at 2000 nM by KINOMEscan assay relative to control; parameters: scale not given: the % may be the effect or the level left

Sequence of Serine/threonine-protein kinase TAO3 (Homo sapiens) (Q9H2K8 whole entry): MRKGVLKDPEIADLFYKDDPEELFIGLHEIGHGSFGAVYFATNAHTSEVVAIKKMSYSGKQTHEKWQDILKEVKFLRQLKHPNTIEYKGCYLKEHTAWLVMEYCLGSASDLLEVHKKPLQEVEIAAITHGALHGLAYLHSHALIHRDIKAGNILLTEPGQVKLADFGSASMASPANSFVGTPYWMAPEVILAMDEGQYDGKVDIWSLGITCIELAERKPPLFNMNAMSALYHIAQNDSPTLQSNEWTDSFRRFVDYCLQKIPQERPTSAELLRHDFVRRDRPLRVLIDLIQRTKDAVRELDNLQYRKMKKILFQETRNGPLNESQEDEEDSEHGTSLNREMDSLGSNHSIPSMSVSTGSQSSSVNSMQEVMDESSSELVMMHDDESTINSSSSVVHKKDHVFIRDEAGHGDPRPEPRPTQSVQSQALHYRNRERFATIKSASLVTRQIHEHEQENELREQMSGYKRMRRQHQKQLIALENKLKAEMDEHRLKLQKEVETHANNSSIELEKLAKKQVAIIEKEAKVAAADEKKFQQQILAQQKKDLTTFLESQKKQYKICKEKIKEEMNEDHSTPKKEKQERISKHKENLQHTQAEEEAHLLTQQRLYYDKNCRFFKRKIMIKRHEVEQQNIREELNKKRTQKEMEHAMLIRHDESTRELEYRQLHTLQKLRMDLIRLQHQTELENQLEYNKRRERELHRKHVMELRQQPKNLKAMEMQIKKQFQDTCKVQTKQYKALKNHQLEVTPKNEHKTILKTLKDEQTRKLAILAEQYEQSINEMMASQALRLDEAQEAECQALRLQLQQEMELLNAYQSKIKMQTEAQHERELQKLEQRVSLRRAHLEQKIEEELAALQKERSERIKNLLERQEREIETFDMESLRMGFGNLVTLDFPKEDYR
Sequence of Non-receptor tyrosine-protein kinase TNK1 (Homo sapiens) (Q13470 whole entry): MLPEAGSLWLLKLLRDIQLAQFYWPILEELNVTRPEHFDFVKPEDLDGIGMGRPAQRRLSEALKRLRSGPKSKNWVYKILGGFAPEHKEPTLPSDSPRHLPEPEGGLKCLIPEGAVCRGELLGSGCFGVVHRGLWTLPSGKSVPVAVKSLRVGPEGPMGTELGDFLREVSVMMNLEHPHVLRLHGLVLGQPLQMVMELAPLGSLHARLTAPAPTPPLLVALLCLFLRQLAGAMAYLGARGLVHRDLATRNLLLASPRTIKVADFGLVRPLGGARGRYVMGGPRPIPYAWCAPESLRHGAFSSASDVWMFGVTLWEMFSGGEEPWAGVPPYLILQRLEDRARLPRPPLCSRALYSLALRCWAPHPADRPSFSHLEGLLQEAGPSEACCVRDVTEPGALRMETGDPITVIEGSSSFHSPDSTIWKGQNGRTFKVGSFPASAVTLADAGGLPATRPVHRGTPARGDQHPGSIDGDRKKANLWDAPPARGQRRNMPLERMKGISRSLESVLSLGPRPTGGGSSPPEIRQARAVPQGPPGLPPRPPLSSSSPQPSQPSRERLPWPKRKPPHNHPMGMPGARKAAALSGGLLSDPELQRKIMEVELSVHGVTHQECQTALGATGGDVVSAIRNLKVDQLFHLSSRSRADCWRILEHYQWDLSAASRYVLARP
Sequence of Phosphatidylinositol 3-kinase C2 domain-containing subunit gamma (Homo sapiens) (O75747 whole entry, the tested form may be a part): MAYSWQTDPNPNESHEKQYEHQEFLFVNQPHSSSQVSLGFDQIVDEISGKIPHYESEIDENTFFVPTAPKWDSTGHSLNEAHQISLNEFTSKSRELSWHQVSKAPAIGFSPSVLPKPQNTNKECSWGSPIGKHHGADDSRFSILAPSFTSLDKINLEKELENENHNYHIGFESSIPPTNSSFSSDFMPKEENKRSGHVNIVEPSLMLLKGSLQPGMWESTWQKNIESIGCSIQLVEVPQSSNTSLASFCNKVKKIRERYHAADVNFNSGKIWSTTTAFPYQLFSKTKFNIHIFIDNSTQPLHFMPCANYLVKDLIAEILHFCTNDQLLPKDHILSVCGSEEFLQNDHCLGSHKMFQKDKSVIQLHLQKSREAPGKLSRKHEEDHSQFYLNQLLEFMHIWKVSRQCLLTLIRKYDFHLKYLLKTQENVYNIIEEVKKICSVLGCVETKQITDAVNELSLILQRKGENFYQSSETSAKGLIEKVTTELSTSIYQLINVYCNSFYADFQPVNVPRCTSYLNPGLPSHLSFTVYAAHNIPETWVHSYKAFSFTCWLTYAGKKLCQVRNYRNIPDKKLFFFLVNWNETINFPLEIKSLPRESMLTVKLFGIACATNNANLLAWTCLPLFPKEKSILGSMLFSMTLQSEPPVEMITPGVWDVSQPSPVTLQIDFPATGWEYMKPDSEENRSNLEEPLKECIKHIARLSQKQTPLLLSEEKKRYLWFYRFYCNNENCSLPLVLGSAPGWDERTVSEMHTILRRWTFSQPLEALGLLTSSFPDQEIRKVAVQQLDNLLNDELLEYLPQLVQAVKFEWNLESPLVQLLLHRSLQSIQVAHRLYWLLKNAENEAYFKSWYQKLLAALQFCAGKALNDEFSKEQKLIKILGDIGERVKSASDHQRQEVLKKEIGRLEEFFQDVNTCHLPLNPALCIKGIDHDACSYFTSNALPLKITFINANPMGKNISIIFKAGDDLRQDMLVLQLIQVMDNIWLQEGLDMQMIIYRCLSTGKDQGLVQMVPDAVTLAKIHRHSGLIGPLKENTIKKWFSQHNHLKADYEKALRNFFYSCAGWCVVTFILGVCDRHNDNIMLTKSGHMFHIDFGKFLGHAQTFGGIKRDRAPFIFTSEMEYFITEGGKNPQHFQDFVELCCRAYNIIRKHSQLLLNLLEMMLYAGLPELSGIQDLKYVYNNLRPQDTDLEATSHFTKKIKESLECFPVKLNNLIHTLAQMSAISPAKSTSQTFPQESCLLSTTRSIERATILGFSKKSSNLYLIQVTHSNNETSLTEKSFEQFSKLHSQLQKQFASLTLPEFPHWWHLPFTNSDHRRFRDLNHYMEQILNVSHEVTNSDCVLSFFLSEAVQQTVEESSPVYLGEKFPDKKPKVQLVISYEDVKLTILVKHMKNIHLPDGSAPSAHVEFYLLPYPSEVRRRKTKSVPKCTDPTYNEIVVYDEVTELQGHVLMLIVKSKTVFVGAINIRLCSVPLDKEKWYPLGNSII
Sequence of Tyrosine-protein kinase receptor TYRO3 (Homo sapiens) (Q06418 whole entry): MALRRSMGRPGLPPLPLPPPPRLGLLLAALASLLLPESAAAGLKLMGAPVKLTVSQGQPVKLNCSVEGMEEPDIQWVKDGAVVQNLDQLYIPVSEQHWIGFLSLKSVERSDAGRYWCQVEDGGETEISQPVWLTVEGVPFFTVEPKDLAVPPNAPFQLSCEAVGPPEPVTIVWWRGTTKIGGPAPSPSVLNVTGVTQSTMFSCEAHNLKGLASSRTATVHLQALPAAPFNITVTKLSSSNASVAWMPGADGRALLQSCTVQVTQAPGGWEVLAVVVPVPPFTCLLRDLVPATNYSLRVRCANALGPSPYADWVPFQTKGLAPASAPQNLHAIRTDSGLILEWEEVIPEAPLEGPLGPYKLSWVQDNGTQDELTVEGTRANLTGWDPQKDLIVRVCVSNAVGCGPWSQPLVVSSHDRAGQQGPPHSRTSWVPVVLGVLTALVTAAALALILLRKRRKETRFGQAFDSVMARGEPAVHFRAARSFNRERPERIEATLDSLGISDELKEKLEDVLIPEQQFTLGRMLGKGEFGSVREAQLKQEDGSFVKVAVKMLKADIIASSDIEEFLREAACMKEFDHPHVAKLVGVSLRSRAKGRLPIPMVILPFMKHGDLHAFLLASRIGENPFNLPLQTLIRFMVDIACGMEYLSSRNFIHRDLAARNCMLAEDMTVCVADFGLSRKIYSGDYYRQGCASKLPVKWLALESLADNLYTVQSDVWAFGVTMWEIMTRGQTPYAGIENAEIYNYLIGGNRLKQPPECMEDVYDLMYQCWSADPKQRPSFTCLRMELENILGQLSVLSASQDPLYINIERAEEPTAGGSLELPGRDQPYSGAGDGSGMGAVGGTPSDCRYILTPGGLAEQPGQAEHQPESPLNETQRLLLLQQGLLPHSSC
Sequence of Phosphatidylinositol 4-phosphate 5-kinase type-1 alpha (Homo sapiens) (Q99755 whole entry): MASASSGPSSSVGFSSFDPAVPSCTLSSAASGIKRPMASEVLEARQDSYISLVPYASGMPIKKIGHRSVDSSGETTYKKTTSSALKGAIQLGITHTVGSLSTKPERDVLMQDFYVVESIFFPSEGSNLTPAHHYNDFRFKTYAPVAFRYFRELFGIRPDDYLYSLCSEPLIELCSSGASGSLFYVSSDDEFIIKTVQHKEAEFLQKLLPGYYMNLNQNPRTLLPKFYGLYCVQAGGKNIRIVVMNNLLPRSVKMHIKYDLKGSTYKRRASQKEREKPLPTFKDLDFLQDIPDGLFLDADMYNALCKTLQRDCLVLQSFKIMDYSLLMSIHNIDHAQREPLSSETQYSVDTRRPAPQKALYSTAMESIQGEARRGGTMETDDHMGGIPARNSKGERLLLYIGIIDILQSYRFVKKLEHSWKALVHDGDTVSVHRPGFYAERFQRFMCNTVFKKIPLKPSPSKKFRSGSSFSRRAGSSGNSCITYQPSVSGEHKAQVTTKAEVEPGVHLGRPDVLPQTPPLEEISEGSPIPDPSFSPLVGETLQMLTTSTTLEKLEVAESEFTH
Sequence of Tyrosine-protein kinase Fgr (Homo sapiens) (P09769 2-529 limits assumed): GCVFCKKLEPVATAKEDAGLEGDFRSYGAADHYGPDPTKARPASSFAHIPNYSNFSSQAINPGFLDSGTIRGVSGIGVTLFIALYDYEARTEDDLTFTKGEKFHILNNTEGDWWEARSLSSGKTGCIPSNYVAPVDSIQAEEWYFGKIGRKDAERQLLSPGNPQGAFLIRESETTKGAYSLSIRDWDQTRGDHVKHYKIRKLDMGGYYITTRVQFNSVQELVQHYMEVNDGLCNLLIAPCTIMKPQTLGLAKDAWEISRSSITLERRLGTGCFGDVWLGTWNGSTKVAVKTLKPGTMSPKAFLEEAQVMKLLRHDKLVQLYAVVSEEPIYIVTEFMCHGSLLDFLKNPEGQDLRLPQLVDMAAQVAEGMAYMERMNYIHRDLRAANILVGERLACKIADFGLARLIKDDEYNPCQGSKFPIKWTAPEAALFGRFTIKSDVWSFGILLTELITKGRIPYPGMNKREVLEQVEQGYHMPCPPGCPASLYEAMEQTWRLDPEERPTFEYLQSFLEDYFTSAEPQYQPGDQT

CN(C)C(=O)c1ccc(N2CCCN(c3ccnc4sc(C(N)=O)c(N)c34)CC2)cc1
Activity [1]: 100% and 78%
Activity [2]: 100%
EC200 [3]: 31.9 nM
Activity [4]: 100%
Activity [5]: 100%
Activity [6]: 98% and 73%
Activity [7]: 100%
Activity [8]: 93% and 86%
Activity [9]: 91% and 85%
Activity [10]: 96% and 94%
Activity [11]: 80% and 87%
Activity [12]: 98% and 100%
Activity [13]: 100% and 97%
Activity [14]: 100%
Activity [15]: 81% and 83%
Activity [16]: 100% and 83%
Activity (CWR22R): Active
Activity [17]: 78% and 100%
Activity [18]: 100% and 86%
Activity [19]: 100% and 98%
inhibition [20]: > 65%
Activity [21]: 100%
Activity [22]: 86% and 92%
Activity [23]: 94% and 82%
Activity [24]: 93% and 89%
Activity [25]: 100% and 85%
Activity [26]: 92% and 95%
Activity [27]: 94% and 70%
inhibition (Myc-CaP): Active
Activity [28]: 100%
Activity [29]: 94%
Activity ([29]; INHIBITOR): 31%
